Experimental data: ChEMBL document CHEMBL1201862, “PubChem BioAssay data set” (2004)
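Cells were grown in 96-well plates and exposed to each compound for 48 hours at five concentrations; endpoints were interpolated linearly between bracketing concentrations, or set to the highest concentration if not reached. GI50 marks 50% less growth.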 The source made the active and inactive calls. No stated cut-off is given here; in the data, active = GI50 up to about 1.1 µM and inactive = higher.

Tests used:
Assay in all cases: NCI anticancer screen, dose series, 48 h
[1] = tested on: HCT-15
[2] = tested on: A498
[3] = tested on: OVCAR-5
[4] = tested on: SK-MEL-5
[5] = tested on: ACHN
[6] = tested on: NCI-H460
[7] = tested on: NCI-H23
[8] = tested on: MOLT-4
[9] = tested on: LOX IMVI
[10] = tested on: MDA-MB-435
[11] = tested on: NCI-H226
[12] = tested on: SF-295
[13] = tested on: SN12C
[14] = tested on: OVCAR-3
[15] = tested on: HCT-116
[16] = tested on: U-251
[17] = tested on: SK-MEL-28
[18] = tested on: SW-620
[19] = tested on: COLO 205
[20] = tested on: MDA-N
[21] = tested on: 786-0
[22] = tested on: UO-31
[23] = tested on: DU-145
[24] = tested on: CCRF-CEM
[25] = tested on: A549
[26] = tested on: SR
[27] = tested on: RPMI-8226
[28] = tested on: HOP-62
[29] = tested on: TK-10
[30] = tested on: SF-268
[31] = tested on: SNB-75
[32] = tested on: SNB-19
[33] = tested on: OVCAR-4
[34] = tested on: UACC-62
[35] = tested on: HCC 2998
[36] = tested on: EKVX
[37] = tested on: K562
[38] = tested on: IGROV-1
[39] = tested on: SF-539
[40] = tested on: HT-29
[41] = tested on: HL-60
[42] = tested on: CAKI-1
[43] = tested on: UACC-257
[44] = tested on: OVCAR-8
[45] = tested on: NCI/ADR-RES
[46] = tested on: KM12
[47] = tested on: RXF 393
[48] = tested on: MCF7
[49] = tested on: T47D
[50] = tested on: Malme-3M
[51] = tested on: SK-OV-3
[52] = tested on: BT-549
[53] = tested on: MDA-MB-231
[54] = tested on: HOP-92
[55] = tested on: Hs-578T
[56] = tested on: M14
[57] = tested on: PC-3
[58] = tested on: NCI-H522
[59] = tested on: SK-MEL-2

## Cn1ncc2c(NCc3ccccc3)ncnc21
[1]
  GI50: > 100 µM
[2]
  GI50: > 100 µM (inactive)
[3]
  GI50: > 100 µM (inactive)
[4]
  GI50: > 100 µM (inactive)
[5]
  GI50: > 100 µM (inactive)
[6]
  GI50: > 100 µM (inactive)
[7]
  GI50: > 100 µM (inactive)
[8]
  GI50: > 100 µM (inactive)
[9]
  GI50: > 100 µM (inactive)
[10]
  GI50: > 100 µM (inactive)
[11]
  GI50: > 100 µM (inactive)
[12]
  GI50: > 100 µM (inactive)
[13]
  GI50: > 100 µM (inactive)
[14]
  GI50: > 100 µM (inactive)
[15]
  GI50: > 100 µM (inactive)
[16]
  GI50: > 100 µM (inactive)
[17]
  GI50: > 100 µM (inactive)
[18]
  GI50: > 100 µM (inactive)
[19]
  GI50: > 100 µM (inactive)
[20]
  GI50: > 100 µM (inactive)
[21]
  GI50: > 100 µM (inactive)
[22]
  GI50: > 100 µM (inactive)
[23]
  GI50: > 100 µM (inactive)
[24]
  GI50: > 100 µM (inactive)
[25]
  GI50: > 100 µM (inactive)
[26]
  GI50: > 100 µM (inactive)
[27]
  GI50: > 100 µM (inactive)
[28]
  GI50: > 100 µM (inactive)
[29]
  GI50: > 100 µM (inactive)
[30]
  GI50: > 100 µM (inactive)
[31]
  GI50: 50.6 µM (inactive)
[32]
  GI50: > 100 µM (inactive)
[33]
  GI50: > 100 µM (inactive)
[34]
  GI50: > 100 µM (inactive)
[35]
  GI50: > 100 µM (inactive)
[36]
  GI50: > 100 µM (inactive)
[37]
  GI50: > 100 µM (inactive)
[38]
  GI50: > 100 µM (inactive)
[39]
  GI50: > 100 µM (inactive)
[40]
  GI50: > 100 µM (inactive)
[41]
  GI50: > 100 µM (inactive)
[42]
  GI50: > 100 µM (inactive)
[43]
  GI50: > 100 µM (inactive)
[44]
  GI50: > 100 µM (inactive)
[45]
  GI50: > 100 µM (inactive)
[46]
  GI50: > 100 µM (inactive)
[47]
  GI50: > 100 µM (inactive)
[48]
  GI50: > 100 µM (inactive)
[49]
  GI50: > 100 µM (inactive)
[50]
  GI50: > 100 µM (inactive)
[51]
  GI50: > 100 µM (inactive)
[52]
  GI50: > 100 µM (inactive)
[53]
  GI50: > 100 µM (inactive)

## Cc1ccc2c(O)cc(-c3ccc(Cl)s3)nc2n1
[1]
  GI50: 0.405 µM
[2]
  GI50: 4.7 µM (inactive)
[3]
  GI50: 2.75 µM (inactive)
[54]
  GI50: > 58.1 µM (inactive)
[4]
  GI50: 0.391 µM (active)
[5]
  GI50: 8.79 µM (inactive)
[6]
  GI50: 0.564 µM (active)
[7]
  GI50: 0.889 µM (active)
[8]
  GI50: 0.488 µM (active)
[55]
  GI50: 1.62 µM (inactive)
[9]
  GI50: 0.662 µM (active)
[10]
  GI50: 0.223 µM (active)
[11]
  GI50: 0.916 µM (active)
[12]
  GI50: 0.697 µM (active)
[13]
  GI50: 1.55 µM (inactive)
[14]
  GI50: 1.1 µM (active)
[15]
  GI50: 0.552 µM (active)
[16]
  GI50: 0.855 µM (active)
[17]
  GI50: 0.665 µM (active)
[18]
  GI50: 0.407 µM (active)
[19]
  GI50: 6.18 µM (inactive)
[56]
  GI50: 0.516 µM (active)
[20]
  GI50: 0.136 µM (active)
[21]
  GI50: 1.21 µM (inactive)
[22]
  GI50: 0.245 µM (active)
[57]
  GI50: 1.57 µM (inactive)
[23]
  GI50: 3.57 µM (inactive)
[24]
  GI50: 0.471 µM (active)
[25]
  GI50: 1.14 µM (inactive)
[26]
  GI50: 0.15 µM (active)
[27]
  GI50: 0.308 µM (active)
[28]
  GI50: 2.31 µM (inactive)
[29]
  GI50: 8.87 µM (inactive)
[30]
  GI50: 4.1 µM (inactive)
[31]
  GI50: 1.4 µM (inactive)
[32]
  GI50: 1.43 µM (inactive)
[33]
  GI50: 16.3 µM (inactive)
[34]
  GI50: 0.643 µM (active)
[35]
  GI50: 1.34 µM (inactive)
[36]
  GI50: 6.92 µM (inactive)
[37]
  GI50: 0.728 µM (active)
[38]
  GI50: 0.564 µM (active)
[39]
  GI50: 0.538 µM (active)
[40]
  GI50: 1.39 µM (inactive)
[41]
  GI50: 0.203 µM (active)
[42]
  GI50: 3.24 µM (inactive)
[43]
  GI50: 5.68 µM (inactive)
[44]
  GI50: 1.44 µM (inactive)
[45]
  GI50: 0.409 µM (active)
[46]
  GI50: 0.488 µM (active)
[47]
  GI50: 2.76 µM (inactive)
[48]
  GI50: 0.422 µM (active)
[58]
  GI50: 0.502 µM (active)
[49]
  GI50: 1.04 µM (active)
[59]
  GI50: 5.18 µM (inactive)
[50]
  GI50: 0.632 µM (active)
[51]
  GI50: 1.83 µM (inactive)
[53]
  GI50: 5.89 µM (inactive)

## C/C(=C/CNc1ncnc2c1ncn2CCC(=O)O)CO
[2]
  GI50: > 100 µM (inactive)
[3]
  GI50: > 100 µM (inactive)
[54]
  GI50: > 100 µM (inactive)
[4]
  GI50: > 100 µM (inactive)
[5]
  GI50: > 100 µM (inactive)
[6]
  GI50: > 100 µM (inactive)
[7]
  GI50: > 100 µM (inactive)
[8]
  GI50: > 100 µM (inactive)
[55]
  GI50: > 100 µM (inactive)
[9]
  GI50: > 100 µM (inactive)
[10]
  GI50: > 100 µM (inactive)
[11]
  GI50: > 100 µM (inactive)
[12]
  GI50: > 100 µM (inactive)
[13]
  GI50: > 100 µM (inactive)
[14]
  GI50: > 100 µM (inactive)
[15]
  GI50: > 100 µM (inactive)
[17]
  GI50: > 100 µM (inactive)
[18]
  GI50: > 100 µM (inactive)
[19]
  GI50: > 100 µM (inactive)
[56]
  GI50: > 100 µM (inactive)
[20]
  GI50: > 100 µM (inactive)
[21]
  GI50: > 100 µM (inactive)
[22]
  GI50: > 100 µM (inactive)
[57]
  GI50: > 100 µM (inactive)
[23]
  GI50: > 100 µM (inactive)
[24]
  GI50: > 100 µM (inactive)
[25]
  GI50: > 100 µM (inactive)
[26]
  GI50: > 100 µM (inactive)
[27]
  GI50: > 100 µM (inactive)
[28]
  GI50: > 100 µM (inactive)
[29]
  GI50: > 100 µM (inactive)
[30]
  GI50: > 100 µM (inactive)
[31]
  GI50: > 100 µM (inactive)
[32]
  GI50: > 100 µM (inactive)
[33]
  GI50: > 100 µM (inactive)
[34]
  GI50: > 100 µM (inactive)
[35]
  GI50: > 100 µM (inactive)
[36]
  GI50: > 100 µM (inactive)
[37]
  GI50: > 100 µM (inactive)
[38]
  GI50: > 100 µM (inactive)
[39]
  GI50: > 100 µM (inactive)
[40]
  GI50: > 100 µM (inactive)
[41]
  GI50: > 100 µM (inactive)
[42]
  GI50: > 100 µM (inactive)
[43]
  GI50: > 100 µM (inactive)
[44]
  GI50: > 100 µM (inactive)
[45]
  GI50: > 100 µM (inactive)
[46]
  GI50: > 100 µM (inactive)
[47]
  GI50: > 100 µM (inactive)
[48]
  GI50: > 100 µM (inactive)
[58]
  GI50: > 100 µM (inactive)
[49]
  GI50: > 100 µM (inactive)
[50]
  GI50: > 100 µM (inactive)
[51]
  GI50: > 100 µM (inactive)
[53]
  GI50: > 100 µM (inactive)
